From ChEMBL document CHEMBL1159251, “A new polyether acid from a cold water marine sponge, a Phakellia species” (J Nat Prod, 1995)
≈ marks a conversion by molar mass, not a printed value. Calls of active or inactive are those of the source. No cut-off for these calls is given here.

Assays:
Human alphaherpesvirus 1 [1] = assay: Antiviral activity against HSV1 in african green monkey CV1 cells at 1 ug/ml by plaque reduction method; assay type: functional, organism-based; conditions: CV-1
[2] = Cytotoxicity against african green monkey CV1 cells assessed as zone of diameter at 0.01 ug/ml; assay type: cell-based; conditions: chlorocebus aethiops, cv-1
[3] = Cytotoxicity against BHK cells; assay type: cell-based, Mesocricetus auratus; conditions: hamster
Human alphaherpesvirus 1 [4] = assay: Antiviral activity against HSV1 in african green monkey CV1 cells at 0.01 ug/ml by plaque reduction method; assay type: functional, organism-based; conditions: CV-1
Human alphaherpesvirus 1 [5] = assay: Antiviral activity against HSV1 in african green monkey CV1 cells at 0.1 ug/ml by plaque reduction method; assay type: functional, organism-based; conditions: CV-1
L1210 = assay: Cytotoxicity against mouse L1210 cells; assay type: cell-based
[6] = Cytotoxicity against african green monkey CV1 cells assessed as zone of diameter at 0.1 ug/ml; assay type: cell-based; conditions: chlorocebus aethiops, cv-1
[7] = test system: Vesicular stomatitis virus; assay: Antiviral activity against VSV in BHK cells at 0.01 ug/ml by plaque reduction method; assay type: functional, organism-based

Structure (SMILES) | Activity (Human alphaherpesvirus 1 [1]) | inhibition zone (IZ) [2] [mm] | Activity [3] | Activity (Human alphaherpesvirus 1 [4]) | Activity (Human alphaherpesvirus 1 [5]) | IC50 (L1210) [ng/mL] | Activity [6] | Activity [7] | inhibition zone (IZ) [6] [mm]
C=C1[C@@H](O)[C@@H]2O[C@]3(CC[C@H](/C=C/[C@@H](C)[C@@H]4CC(C)=C[C@@]5(O[C@H](C[C@@](C)(O)C(=O)O)CC[C@H]5O)O4)O3)CC[C@H]2O[C@@H]1[C@@H](O)C[C@H](C)[C@H]1O[C@@]2(CC[C@H]1C)OCCC[C@H]2C [DINOPHYSISTOXIN 1] | Active | 0 | Toxic | inactive | Active | 2 (≈ 2.44 nM) | Toxic | – | –
C=C1[C@@H](O)[C@@H]2O[C@]3(CC[C@H](CC[C@@H](C)[C@@H]4CC(C)=C[C@@]5(O[C@H](C[C@@](C)(O)C(=O)O)CC[C@H]5O)O4)O3)CC[C@H]2O[C@@H]1[C@@H](O)C[C@H](C)[C@H]1O[C@@]2(CC[C@H]1C)OCCC[C@H]2C | – | 0 | Toxic | inactive | – | 3 (≈ 3.65 nM) | – | Active | 0
C=C1[C@@H](O)[C@@H]2O[C@]3(CC[C@H](/C=C/[C@@H](C)[C@@H]4CC(C)=C[C@@]5(O[C@H](C[C@@](C)(O)C(=O)O)CC[C@H]5O)O4)O3)CC[C@H]2O[C@@H]1[C@@H](O)C[C@H](C)[C@H]1O[C@@]2(CCCCO2)CC[C@H]1C [OKADAIC ACID] | – | 0 | – | – | – | 5 (≈ 6.21 nM) | – | – | 22
